From ChEMBL document CHEMBL3763052, “Novel N-acyl-carbazole derivatives as 5-HT7R antagonists” (Eur J Med Chem, 2016)

Experiments:
[1] = target: T1, 5-hydroxytryptamine receptor 7 (Homo sapiens, UniProt P34969); experiment: Displacement of [3H]LSD from 5-HT7 receptor (unknown origin) expressed in CHO-K1 cells by liquid scintillation counting method; assay type: cell-based
[2] = target: T1, 5-hydroxytryptamine receptor 7; experiment: Displacement of [3H]LSD from 5-HT7 receptor (unknown origin) expressed in CHO-K1 cells at 10 uM by liquid scintillation counting method; assay type: cell-based
[3] = test system: Mus musculus; experiment: Antidepressant activity in ICR mouse assessed as immobility time at 50 mg/kg, iv administered 30 mins before testing by forced swim test (reference value: 159.1 sec); assay type: functional
[4] = target: 5-hydroxytryptamine receptor 2B (Homo sapiens, UniProt P41595); experiment: Binding affinity to recombinant 5-HT2B receptor (unknown origin) after 1.5 hrs by radioligand displacement assay
Chain of 5-hydroxytryptamine receptor 2B (P41595 whole entry): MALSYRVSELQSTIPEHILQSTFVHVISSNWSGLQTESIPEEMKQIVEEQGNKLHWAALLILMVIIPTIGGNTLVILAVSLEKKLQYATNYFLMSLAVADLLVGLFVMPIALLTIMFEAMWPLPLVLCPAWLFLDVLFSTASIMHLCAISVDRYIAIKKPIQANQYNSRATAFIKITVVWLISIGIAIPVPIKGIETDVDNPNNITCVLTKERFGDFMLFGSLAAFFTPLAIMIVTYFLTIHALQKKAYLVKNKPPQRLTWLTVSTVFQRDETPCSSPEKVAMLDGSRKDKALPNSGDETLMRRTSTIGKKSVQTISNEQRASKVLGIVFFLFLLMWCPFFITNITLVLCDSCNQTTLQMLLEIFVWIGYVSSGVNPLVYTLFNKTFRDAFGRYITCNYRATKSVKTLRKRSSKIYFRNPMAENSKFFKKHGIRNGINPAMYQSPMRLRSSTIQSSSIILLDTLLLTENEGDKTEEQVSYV

[5] = species: Homo sapiens; experiment: Selectivity index, ratio of Ki for recombinant 5-HT1A receptor (unknown origin) to Ki for recombinant 5-HT7 receptor (unknown origin)
[6] = target: T1, 5-hydroxytryptamine receptor 7; experiment: Binding affinity to recombinant 5-HT7 receptor (unknown origin) after 1.5 hrs by radioligand displacement assay
[7] = species: Homo sapiens; experiment: Selectivity index, ratio of Ki for recombinant 5-HT6 receptor (unknown origin) to Ki for recombinant 5-HT7 receptor (unknown origin)
[8] = target: T2, 5-hydroxytryptamine receptor 2A (Homo sapiens, UniProt P28223); experiment: Binding affinity to recombinant 5-HT2A receptor (unknown origin) at 10 uM after 1.5 hrs by radioligand displacement assay
T2 sequence (P28223 whole entry): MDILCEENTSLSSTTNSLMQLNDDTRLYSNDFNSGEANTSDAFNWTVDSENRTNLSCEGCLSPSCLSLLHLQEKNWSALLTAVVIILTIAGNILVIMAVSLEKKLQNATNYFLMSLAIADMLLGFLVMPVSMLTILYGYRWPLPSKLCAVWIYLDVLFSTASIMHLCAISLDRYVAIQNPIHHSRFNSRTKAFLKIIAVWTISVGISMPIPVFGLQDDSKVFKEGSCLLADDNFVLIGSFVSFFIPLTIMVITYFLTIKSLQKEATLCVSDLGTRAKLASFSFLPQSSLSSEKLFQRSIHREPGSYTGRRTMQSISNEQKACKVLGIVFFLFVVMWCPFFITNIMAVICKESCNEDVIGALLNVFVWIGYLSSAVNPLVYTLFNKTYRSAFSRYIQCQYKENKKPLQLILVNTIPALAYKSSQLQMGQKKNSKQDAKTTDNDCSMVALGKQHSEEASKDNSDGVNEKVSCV

[9] = species: Homo sapiens; experiment: Selectivity index, ratio of Ki for recombinant 5-HT5 receptor (unknown origin) to Ki for recombinant 5-HT7 receptor (unknown origin)
[10] = target: 5-hydroxytryptamine receptor 1D (Homo sapiens, UniProt P28221); experiment: Binding affinity to recombinant 5-HT1D receptor (unknown origin) after 1.5 hrs by radioligand displacement assay
Chain of 5-hydroxytryptamine receptor 1D (P28221 whole entry): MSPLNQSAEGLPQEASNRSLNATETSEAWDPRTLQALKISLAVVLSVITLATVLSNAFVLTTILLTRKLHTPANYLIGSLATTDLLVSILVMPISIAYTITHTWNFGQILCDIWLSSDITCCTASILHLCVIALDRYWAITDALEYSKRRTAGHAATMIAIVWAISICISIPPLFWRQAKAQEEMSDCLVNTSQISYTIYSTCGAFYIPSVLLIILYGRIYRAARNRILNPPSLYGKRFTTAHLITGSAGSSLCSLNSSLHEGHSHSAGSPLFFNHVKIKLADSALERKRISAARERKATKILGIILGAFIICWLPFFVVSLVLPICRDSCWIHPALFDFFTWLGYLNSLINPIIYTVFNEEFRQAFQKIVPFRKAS

[11] = target: 5-hydroxytryptamine receptor 5A (Homo sapiens, UniProt P47898); experiment: Binding affinity to recombinant 5-HT5 receptor (unknown origin) after 1.5 hrs by radioligand displacement assay
Chain of 5-hydroxytryptamine receptor 5A (P47898 whole entry): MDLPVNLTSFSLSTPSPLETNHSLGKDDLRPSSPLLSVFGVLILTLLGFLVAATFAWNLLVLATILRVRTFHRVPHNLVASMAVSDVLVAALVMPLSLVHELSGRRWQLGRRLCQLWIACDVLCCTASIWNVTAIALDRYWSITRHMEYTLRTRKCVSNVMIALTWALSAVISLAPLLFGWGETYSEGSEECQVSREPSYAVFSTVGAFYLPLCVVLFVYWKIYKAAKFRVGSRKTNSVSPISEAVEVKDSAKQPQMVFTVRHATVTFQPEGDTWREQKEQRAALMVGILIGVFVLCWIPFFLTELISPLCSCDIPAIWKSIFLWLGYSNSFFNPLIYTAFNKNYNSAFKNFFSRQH

[12] = target: T3, 5-hydroxytryptamine receptor 6 (Homo sapiens, UniProt P50406); experiment: Binding affinity to recombinant 5-HT6 receptor (unknown origin) after 1.5 hrs by radioligand displacement assay
T3 sequence (P50406 whole entry): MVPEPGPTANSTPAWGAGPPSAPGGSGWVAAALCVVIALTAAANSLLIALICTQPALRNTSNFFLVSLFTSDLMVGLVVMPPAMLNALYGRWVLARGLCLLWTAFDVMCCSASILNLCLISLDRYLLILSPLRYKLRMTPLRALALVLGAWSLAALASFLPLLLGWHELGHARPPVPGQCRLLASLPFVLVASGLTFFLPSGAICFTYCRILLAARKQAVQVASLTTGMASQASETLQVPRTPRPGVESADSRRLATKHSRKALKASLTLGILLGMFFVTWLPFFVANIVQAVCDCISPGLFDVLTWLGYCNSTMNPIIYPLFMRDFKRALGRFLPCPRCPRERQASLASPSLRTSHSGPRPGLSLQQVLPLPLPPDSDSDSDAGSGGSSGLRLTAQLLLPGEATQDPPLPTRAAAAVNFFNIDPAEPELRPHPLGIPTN

[13] = target: T4, 5-hydroxytryptamine receptor 2C (Homo sapiens, UniProt P28335); experiment: Binding affinity to recombinant 5-HT2C receptor (unknown origin) after 1.5 hrs by radioligand displacement assay
T4 sequence (P28335 whole entry): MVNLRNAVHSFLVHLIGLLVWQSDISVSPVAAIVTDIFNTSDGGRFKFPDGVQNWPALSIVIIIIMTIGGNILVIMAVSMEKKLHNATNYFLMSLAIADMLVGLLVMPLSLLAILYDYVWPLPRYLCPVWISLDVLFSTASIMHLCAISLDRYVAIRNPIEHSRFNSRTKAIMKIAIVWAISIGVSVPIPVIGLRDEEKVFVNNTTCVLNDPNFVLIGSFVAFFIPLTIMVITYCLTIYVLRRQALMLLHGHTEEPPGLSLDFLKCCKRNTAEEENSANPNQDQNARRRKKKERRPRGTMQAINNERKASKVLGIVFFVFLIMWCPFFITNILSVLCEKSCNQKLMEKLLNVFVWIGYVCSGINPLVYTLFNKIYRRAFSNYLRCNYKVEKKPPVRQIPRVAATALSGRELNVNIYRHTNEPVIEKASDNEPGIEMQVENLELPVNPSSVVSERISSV

[14] = target: T5, 5-hydroxytryptamine receptor 3A (Homo sapiens) (UniProt P46098); experiment: Binding affinity to recombinant 5-HT3 receptor (unknown origin) at 10 uM after 1.5 hrs by radioligand displacement assay
T5 sequence (whole entry): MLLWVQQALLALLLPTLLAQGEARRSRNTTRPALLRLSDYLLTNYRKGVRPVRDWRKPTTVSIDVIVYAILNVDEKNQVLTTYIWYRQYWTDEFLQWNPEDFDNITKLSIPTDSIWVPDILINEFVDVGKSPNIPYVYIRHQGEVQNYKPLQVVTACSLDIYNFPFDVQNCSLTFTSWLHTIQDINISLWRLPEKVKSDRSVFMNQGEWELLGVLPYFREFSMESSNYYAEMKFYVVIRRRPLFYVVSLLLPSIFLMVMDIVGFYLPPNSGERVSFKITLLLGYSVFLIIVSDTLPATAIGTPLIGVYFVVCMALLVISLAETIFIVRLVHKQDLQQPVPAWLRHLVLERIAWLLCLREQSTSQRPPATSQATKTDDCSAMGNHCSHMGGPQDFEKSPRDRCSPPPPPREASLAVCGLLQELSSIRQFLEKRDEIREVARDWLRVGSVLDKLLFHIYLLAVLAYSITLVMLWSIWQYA

[15] = target: T6, 5-hydroxytryptamine receptor 1B (Homo sapiens, UniProt P28222); experiment: Binding affinity to recombinant 5-HT1B receptor (unknown origin) at 10 uM after 1.5 hrs by radioligand displacement assay
T6 sequence (P28222 whole entry): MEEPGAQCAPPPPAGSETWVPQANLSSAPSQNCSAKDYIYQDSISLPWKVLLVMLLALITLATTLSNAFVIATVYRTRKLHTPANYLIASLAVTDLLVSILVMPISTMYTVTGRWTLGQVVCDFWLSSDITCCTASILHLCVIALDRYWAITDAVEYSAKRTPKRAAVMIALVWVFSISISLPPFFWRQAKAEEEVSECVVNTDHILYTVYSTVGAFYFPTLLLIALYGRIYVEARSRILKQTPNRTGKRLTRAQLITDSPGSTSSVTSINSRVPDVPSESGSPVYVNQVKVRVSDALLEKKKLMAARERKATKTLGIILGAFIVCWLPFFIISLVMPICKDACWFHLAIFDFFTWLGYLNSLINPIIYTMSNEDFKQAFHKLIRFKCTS

[16] = target: T7, 5-hydroxytryptamine receptor 1A (Homo sapiens, UniProt P08908); experiment: Binding affinity to recombinant 5-HT1A receptor (unknown origin) after 1.5 hrs by radioligand displacement assay
T7 sequence (P08908 whole entry): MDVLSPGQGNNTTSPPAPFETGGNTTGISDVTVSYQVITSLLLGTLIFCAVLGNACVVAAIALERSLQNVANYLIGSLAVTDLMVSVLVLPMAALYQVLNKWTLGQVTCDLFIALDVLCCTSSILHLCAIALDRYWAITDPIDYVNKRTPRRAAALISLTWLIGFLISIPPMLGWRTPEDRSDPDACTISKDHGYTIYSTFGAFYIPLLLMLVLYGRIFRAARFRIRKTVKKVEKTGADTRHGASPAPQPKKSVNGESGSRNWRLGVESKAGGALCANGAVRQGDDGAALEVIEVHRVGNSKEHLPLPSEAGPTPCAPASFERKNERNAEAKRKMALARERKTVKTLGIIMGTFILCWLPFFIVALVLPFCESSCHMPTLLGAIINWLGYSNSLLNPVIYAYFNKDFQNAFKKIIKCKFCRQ

[17] = species: Homo sapiens; experiment: Selectivity index, ratio of Ki for recombinant 5-HT1D receptor (unknown origin) to Ki for recombinant 5-HT7 receptor (unknown origin)
[18] = species: Homo sapiens; experiment: Selectivity index, ratio of Ki for recombinant 5-HT2B receptor (unknown origin) to Ki for recombinant 5-HT7 receptor (unknown origin)
[19] = species: Homo sapiens; experiment: Selectivity index, ratio of Ki for recombinant 5-HT2C receptor (unknown origin) to Ki for recombinant 5-HT7 receptor (unknown origin)
[20] = target: T2, 5-hydroxytryptamine receptor 2A; experiment: Binding affinity to recombinant 5-HT2A receptor (unknown origin) after 1.5 hrs by radioligand displacement assay
[21] = target: T6, 5-hydroxytryptamine receptor 1B; experiment: Binding affinity to recombinant 5-HT1B receptor (unknown origin) after 1.5 hrs by radioligand displacement assay
[22] = target: T3, 5-hydroxytryptamine receptor 6; experiment: Binding affinity to recombinant 5-HT6 receptor (unknown origin) at 10 uM after 1.5 hrs by radioligand displacement assay

T1 sequence (P34969 whole entry): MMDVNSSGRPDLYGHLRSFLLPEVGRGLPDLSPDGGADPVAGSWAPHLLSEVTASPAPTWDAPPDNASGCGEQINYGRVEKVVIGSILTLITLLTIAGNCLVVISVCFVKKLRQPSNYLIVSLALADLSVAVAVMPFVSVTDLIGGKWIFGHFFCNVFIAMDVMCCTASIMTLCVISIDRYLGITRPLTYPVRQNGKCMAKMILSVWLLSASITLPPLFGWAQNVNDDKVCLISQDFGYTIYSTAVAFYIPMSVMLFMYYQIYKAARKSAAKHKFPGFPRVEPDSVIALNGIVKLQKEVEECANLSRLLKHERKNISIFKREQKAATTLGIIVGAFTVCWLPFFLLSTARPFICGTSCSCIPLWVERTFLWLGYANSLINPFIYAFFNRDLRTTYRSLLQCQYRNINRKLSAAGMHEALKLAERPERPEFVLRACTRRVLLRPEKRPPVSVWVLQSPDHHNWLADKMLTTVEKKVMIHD

Work on `O=C(CCCCN1CCC(Cc2ccccc2)CC1)n1c2ccccc2c2ccccc21` yielded a Ki [1] of 312 nM.
`CN1CCN(CCCCCC(=O)n2c3ccccc3c3ccccc32)CC1` showed a Ki [1] of 1910 nM.
`O=C(CCCCN1CCOCC1)n1c2ccccc2c2ccccc21` showed an inhibition [2] of 47%.
Work on `CN(CCCCC(=O)n1c2ccccc2c2ccccc21)Cc1ccccc1` yielded a Ki [1] of 513 nM.
`CN1CCN(CCCCC(=O)n2c3ccccc3c3ccccc32)CC1` gave an inhibition [2] of 40%.
Work on `CNCCC(Oc1ccc(C(F)(F)F)cc1)c1ccccc1` (stereo unspecified) [FLUOXETINE] yielded a Time [3] of 83.9 s.
With `O=C(CCCCCN1CCC(c2ccccc2)CC1)n1c2ccccc2c2ccccc21` the Ki [1] was 157 nM.
`CC1CCCN(CCCCCC(=O)n2c3ccccc3c3ccccc32)C1` (stereo unspecified) showed a Ki [1] of 550 nM.
`O=C(CCCCCN1CCC(Cc2ccccc2)CC1)n1c2ccccc2c2ccccc21` gave a Ki [1] of 252 nM.
`O=C(CCCCCN1CCCC1)n1c2ccccc2c2ccccc21` gave a Ki [1] of 1050 nM.
For `CC1CCN(CCCCC(=O)n2c3ccccc3c3ccccc32)CC1`, the Ki [1] was 592 nM.
With `O=C(CCCCN1CCCCCC1)n1c2ccccc2c2ccccc21` the Ki [1] was 949 nM.
`CCCCN(C)CCCCC(=O)n1c2ccccc2c2ccccc21` was tested, and the Ki [1] was 1280 nM.
`CCCCN(C)CCCCCC(=O)n1c2ccccc2c2ccccc21` gave a Ki [1] of 680 nM.
Work on `CC(=O)N1CCN(CCCCCC(=O)n2c3ccccc3c3ccccc32)CC1` yielded a Ki [1] of 2340 nM.
`O=C(CCCCCN1CCOCC1)n1c2ccccc2c2ccccc21` was tested, and the Ki [1] was 1310 nM.
`O=C(CCCCCN1CCN(c2ccccc2O)CC1)n1c2ccccc2c2ccccc21` gave a Ki [4] of 101 nM, a Ratio Ki [5] of 3.9 and a Ki [6] of 38 nM. It also gave a Ratio Ki [7] of 16, an inhibition [8] of 13% and a Ratio Ki [9] of 25. It also gave a Ki [10] of 28 nM, a Ki [11] of 933 nM and a Ki [12] of 595 nM. It also gave a Ki [1] of 38 nM, a Ki [13] of 1390 nM and an inhibition [14] of 41%. It also gave an inhibition [15] of 48%, a Ki [16] of 148 nM and a Ratio Ki [17] of 0.74. It also gave a Ratio Ki [18] of 2.7 and a Ratio Ki [19] of 37.
`O=C(CCCCN1CCCC1)n1c2ccccc2c2ccccc21` gave a Ki [1] of 2160 nM.
`COc1ccccc1N1CCN(CCCCC(=O)n2c3ccccc3c3ccccc32)CC1` showed a Ki [4] of 93 nM, a Ki [20] of 451 nM and a Ratio Ki [5] of 4.1. The Ki [6] was 30 nM, the Ki [21] was 3740 nM and the Ratio Ki [9] was 0.17. For the same molecule, the inhibition [22] was 44%, the Ki [10] was 462 nM and the Ki [11] was 5 nM. It also gave a Ki [1] of 30 nM, a Ki [13] of 1170 nM and an inhibition [14] of 24%. It also gave a Ki [16] of 122 nM, a Ratio Ki [17] of 15 and a Ratio Ki [18] of 3.1. For the same molecule, the Ratio Ki [19] was 39.
`CC1CC(C)CN(CCCCC(=O)n2c3ccccc3c3ccccc32)C1` (stereo unspecified) was tested, and the Ki [1] was 1400 nM.
For `O=C(CCCCN1CCC(c2ccccc2)CC1)n1c2ccccc2c2ccccc21`, the Ki [1] was 153 nM.
`O=C(CCCCCN1CCCCCC1)n1c2ccccc2c2ccccc21` showed a Ki [1] of 616 nM.
`CC1CC(C)CN(CCCCCC(=O)n2c3ccccc3c3ccccc32)C1` (stereo unspecified) showed a Ki [1] of 833 nM.
`O=C(CCCCN1CCN(c2ccccc2O)CC1)n1c2ccccc2c2ccccc21` gave a Ki [4] of 83 nM, a Ki [20] of 257 nM and a Ratio Ki [5] of 0.26. It also gave a Ratio Ki [7] of 10, a Ratio Ki [9] of 3.9 and a Ki [10] of 1400 nM. The Ki [11] was 337 nM, the Ki [12] was 879 nM and the Ki [1] was 86 nM. For the same molecule, the Ki [13] was 1520 nM, the inhibition [14] was 41% and the inhibition [15] was 37%. It also gave a Ki [16] of 22 nM, a Ratio Ki [17] of 16 and a Ratio Ki [18] of 0.97. The Ratio Ki [19] was 18.
For `CC(=O)N1CCN(CCCCC(=O)n2c3ccccc3c3ccccc32)CC1`, the Ki [1] was 1070 nM.
